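Results reflect a 48-hour exposure of cells in 96-well plates to compound at five concentrations. GI50 = concentration required for 50% inhibition of growth.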 The source made the active and inactive calls. Rule as the data show it: active = GI50 up to about 1.1 µM and inactive = higher.
What was measured:
Assay in all cases: growth of human tumour cells (NCI), 48 h
[1] = test system: SW-620
[2] = test system: DMS-273
[3] = test system: SK-OV-3
[4] = test system: RPMI-8226
[5] = test system: CAKI-1
[6] = test system: SR
[7] = test system: M14
[8] = test system: HCT-116
[9] = test system: SNB-19
[10] = test system: SN12C
[11] = test system: U-251
[12] = test system: UACC-62
[13] = test system: UO-31
[14] = test system: OVCAR-4
[15] = test system: OVCAR-3
[16] = test system: HOP-92
[17] = test system: HL-60
[18] = test system: A498

Measured: GI50

CCCO/S(=N\S(=O)(=O)c1ccccc1)c1ccccc1[N+](=O)[O-] (stereo not given)
inactive: [1] > 100 µM | [2] > 100 µM | [3] > 100 µM | [4] > 100 µM | [5] > 100 µM | [6] > 100 µM | [7] > 100 µM | [8] > 100 µM | [9] > 100 µM | [10] > 100 µM | [11] > 100 µM | [12] > 100 µM | [13] > 100 µM | [14] > 100 µM | [15] > 100 µM

COc1ccc2[nH]c3c(O)nncc3c2c1
inactive: [1] > 100 µM | [2] > 100 µM | [3] 45.7 µM | [16] 35.1 µM | [17] > 100 µM | [4] > 100 µM | [6] > 100 µM | [18] > 100 µM | [7] > 100 µM | [8] > 100 µM | [9] > 100 µM | [11] > 100 µM | [12] 53.2 µM | [13] > 100 µM | [14] > 100 µM | [15] > 100 µM

O=C(NCCCCCCNC(=O)c1cccc2ccccc12)c1cccc2ccccc12
inactive: [1] > 100 µM | [2] 2.02 µM | [3] 21.2 µM | [16] 7.96 µM | [17] > 100 µM | [4] > 100 µM | [5] 21.3 µM | [6] > 100 µM | [18] 24.3 µM | [7] 46.8 µM | [8] 14.4 µM | [10] 25.7 µM | [11] 18.3 µM | [12] > 100 µM | [13] 31.5 µM | [14] 14.4 µM | [15] 28.9 µM

Cc1ccccc1NC(=O)CC(=O)n1nc(-c2ccccc2)c(/N=N/c2ccc([N+](=O)[O-])cc2)c1-c1ccccc1
inactive: [1] 30.5 µM | [2] 21 µM | [3] 16.7 µM | [16] 11.4 µM | [17] 19.9 µM | [4] 19.2 µM | [5] 5.87 µM | [6] 25.1 µM | [7] 16.7 µM | [8] 14.4 µM | [9] 25.6 µM | [10] 22.1 µM | [11] 14.1 µM | [12] 13.1 µM | [13] 7.03 µM | [14] 23.6 µM | [15] 15.7 µM

O=[N+]([O-])c1ccc2c(c1)OCCOCCOc1ccc([N+](=O)[O-])cc1OCCOCCO2
inactive: [1] > 100 µM | [2] > 100 µM | [3] > 100 µM | [17] > 100 µM | [4] > 100 µM | [5] > 100 µM | [6] > 100 µM | [18] > 100 µM | [7] > 100 µM | [8] > 100 µM | [9] > 100 µM | [10] > 100 µM | [11] > 100 µM | [12] > 100 µM | [13] > 100 µM | [14] > 100 µM | [15] > 100 µM

CCCCCCCCCCCCCCCCCC(=O)NCCCNCCCNC(=O)CCCCCCCCCCCCCCCCC
inactive: [1] > 100 µM | [2] > 100 µM | [3] > 100 µM | [16] > 100 µM | [17] > 100 µM | [4] > 100 µM | [5] > 100 µM | [18] > 100 µM | [7] > 100 µM | [8] > 100 µM | [9] > 100 µM | [10] > 100 µM | [11] > 100 µM | [12] > 100 µM | [13] > 100 µM | [14] > 100 µM | [15] 37.3 µM

O/N=C1/CCCC/C1=C\c1ccc(Cl)c(Cl)c1
inactive: [1] 46.6 µM | [2] 24.7 µM | [3] 35.3 µM | [17] 3.8 µM | [5] 32.5 µM | [18] 29.6 µM | [7] 28.2 µM | [8] 17.2 µM | [9] 27.9 µM | [10] 18.4 µM | [11] 17.3 µM | [12] 29.7 µM | [13] 20.8 µM | [14] 21.5 µM | [15] 21.8 µM

O=C1C2=C(CCCC2)Nc2cccc3ncn1c23
inactive: [1] > 100 µM | [2] > 100 µM | [3] > 100 µM | [16] > 100 µM | [17] > 100 µM | [4] > 100 µM | [6] > 100 µM | [18] > 100 µM | [7] > 100 µM | [8] > 100 µM | [9] > 100 µM | [10] > 100 µM | [11] > 100 µM | [12] > 100 µM | [13] > 100 µM | [15] > 100 µM

Reference: ChEMBL document CHEMBL1201862, “PubChem BioAssay data set” (2004)
